Three molecules from patent US20060084599A1, “Compositions, methods and kits relating to notch signaling” (Maine Medical Center, priority 2003, published 2006) can be followed below.

Marks after values point to notes of the source that are not given here.

One experiment has as its system NCSC populations. Briefly: Clonogenic differentiation assay of NCSC: ligand pre-incubation, then BMP2 challenge. The class given is cell-based, mouse. Particulars: then 1 ng/ml BMP2 seven days, mean ± SD. How it is done: Clonogenic assays were performed as described (Stemple et al., 1992, Cell 71:973-985). Briefly, populations of murine NCSC were plated at a clonal density and maintained for a maximum of 14 days in Morrison media supplemented with 15% chick embryo extract (Morrison et al., 1999, Cell 96:737-749). The resulting clones were fixed in an acetic acid:ethanol solution (2:1) and stained with antibodies against peripherin (Chemicon) to detect neurons, smooth muscle actin (Sigma) to detect myofibroblasts, and GFAP (Chemicon) to detect Schwann cells. Clones were scored based on the appearance of just one phenotypic representative. The number and percentage of clones containing neurons only (N), Schwann cells only (S), myofibroblasts only (M), N+S, N+M, N+S+M, and S+M were scored at day 14 unless otherwise stated. The production of each representative phenotype in each individual clone was also scored to complement the clonal population assay.
NCSC Retain Neurogenic capacity in the presence of sJ1. A clonogenic differentiation assay was performed using mouse NSCS populations as described previously (Kubu et al., 2002, Dev. Biol. 244:199-214; Stemple et al., 1992, Cell 71:973-985). The cells were incubated in Stemple media (Stemple et al., 1992) with or without 5 nM sDl1 or 7.5 nM sJ1 for the time periods set forth in Table 1. After the initial incubation period, cells were washed and neuronal differentiation was challenged in the presence of 1 ng/ml BMP2 for an additional seven days. The resulting clones were fixed and stained for detection of neural crest markers. The data disclosed in Table 1 is presented as the percentage of glial-only, neuron-only, and neuron colonies containing either smooth muscle or glial markers as the mean ± standard deviation (SD) of three experiments originating from three independent cell isolations. Note the retention of neurogenic differentiation capacity in sJ1-treated cells (*=p<0.01) compared with the sDl1-treated cells.

In experiment [1] the test system is FGF1R136K NIH 3T3 cell transfectants. Put plainly: Thrombin stimulation and immunoblot analysis of FGF1 release. The class given is cell-based, murine. How it is done: FGF1R136K NIH 3T3 cell transfectants or adenovirally-transduced NIH 3T3 cells were washed with DMEM containing 5 units/ml of heparin (Sigma) and stimulated with either 10 μg/ml α-thrombin (a gift from Dr. J. Fenton) or 5 μM TRAP (Sigma) at 37° C. for different periods of time. Control cells were incubated in the absence of thrombin for the same time period. Conditioned media were collected at each time period, filtered, and concentrated as previously described (Jackson et al., 1992, Proc. Natl. Acad. Sci. U.S.A. 89:10691-10695). The concentrates were resolved by SDS-PAGE and subjected to immunoblot analysis using a rabbit antibody against either FGF1 (Jackson et al., 1992), Syt1 (LaVallee et al., 1998, J. Biol. Chem. 273:22217-22223) or Myc (Oncogene). The heat shock-induced release of FGF1 was performed at 42° C. for 110 minutes as previously described (Jackson et al., 1992). Cell viability was assessed by measuring lactate dehydrogenase activity in the conditioned medium after filtration as disclosed previously elsewhere herein (published as Mandinova et al., 2003, J. Cell Sci. 116:2687-2696), and total cell lysates were obtained and processed for immunoblot analysis as described (Landriscina et al., 2001, J. Biol. Chem. 276:22544-22552).
Stable FGF1R136K NIH 3T3 cell transfectants were pre-incubated with either 100 ng/ml pertussis toxin (PTX) or 10 ng/ml cholera toxin (CT) for 60 minutes at 37° C. in DMEM containing 10% BCS. After pre-incubation, the cells were washed, stimulated with 10 μg/ml of thrombin for different periods of time in the presence of either 100 ng/ml PTX or 10 ng/ml CT, conditioned medium collected, and subjected to immunoblot analysis as described above.

In experiment [2] the test system is NIH 3T3 cell transfectants. Briefly: Colony formation in soft agar (anchorage-independent growth). The class given is cell-based, murine. Particulars: stable NIH 3T3 cell transfectants expressing the ligand. On the procedure: Clonal populations of NIH 3T3 cells stably transfected with vector control, soluble Jagged1 (sJ1), constitutively active Notch1 (caN1), constitutively active Notch 2 (caN2), dominant negative Notch 1 (dnN1), dominant negative Notch 2 (dnN2), an oncogenic mutant of FGF1 engineered with the FGF4 signal peptide sequence (hst-β (FGF4):FGF1), or constitutively active oncogenic Ras construct (caRas), were plated on 6 cm tissue culture dishes with 0.5% agar in an overlay containing DMEM (Gibco BRL) media, 10% bovine calf serum (BCS; Hyclone), and 0.33% agar at 1.5×10^3 cells/dish. As indicated, some dishes were also treated with 1 μM of the FGFR1-specific inhibitor, PD166866 (Panek et al., 1998, J. Pharmacol. Exp. Ther. 286: 569-577) and/or 10 ng/ml recombinant human FGF1 and 10 U/ml heparin (Sigma). Cells were fed with 0.5 ml of media with or without FGF1 and/or the FGFR1-specific inhibitor every 3 days as indicated. Twenty days after plating, colonies were stained with p-iodonitrotetrazolium violet (Sigma) for visualization. Quantitation of colony formation was achieved by counting all p-iodonitrotetrazolium violet-stained colonies consisting of more than 4 cells under a Zeiss Stemi SVII Apo dissecting microscope.
Anchorage-Dependent and -Independent Cell Growth Assays. Approximately 3×10^4 cells were plated on fibronectin (10 μg/cm^2)-coated in 12-well cell culture dishes (Falcon) in DMEM containing 10% BCS (v/v) (Hyclone). Three wells of the individual NIH 3T3 cell transfectants were harvested every third day and cell number was quantitated using a hemocytometer. Anchorage-independent cell growth was evaluated by plating in duplicate approximately 1.7×10^3 cells in DMEM containing 0.5% (w/v) agar (Sigma) 10% (v/v) BCS into 5 cm plastic dishes (Falcon) as previously described (Small et al., 2003, J. Biol. Chem. 278:16405-16413).

The mark [3] stands for this setting: 5 nM sDl1 or 7.5 nM sJ1 for 24 hrs.

Turning to “sJ1: Soluble Jagged1, amino acid residues about 1 to 1067 (SEQ ID NO:3) of full-length human Jagged1”, the Glial-Only colonies in the experiment with NCSC populations (setting [3]) is 0%; with NCSC populations (7.5 nM sJ1 for 72 hrs), 0.8 ± 1.4%*; with NCSC populations (7.5 nM sJ1 for 120 hrs), 5.82 ± 3.4%*; with NCSC populations (7.5 nM sJ1 for 168 hrs), 13.3 ± 4.5%*. Besides, the Neuron-Containing colonies with NCSC populations (setting [3]) came to 71.4 ± 6.2%*; in the experiment with NCSC populations (7.5 nM sJ1 for 72 hrs) it was 74.8 ± 16.3%*; in the experiment on NCSC populations (7.5 nM sJ1 for 120 hrs) it was 52.01 ± 14.1%*; with NCSC populations (7.5 nM sJ1 for 168 hrs), 35.03 ± 9.1%. Further, the Neuron-Only colonies in the experiment on NCSC populations (setting [3]) turned out to be 54.4 ± 8.4%*; with NCSC populations (7.5 nM sJ1 for 72 hrs), 42.8 ± 6.6%*; in the experiment with NCSC populations (7.5 nM sJ1 for 120 hrs), 13.43 ± 6.5%*; in the experiment on NCSC populations (7.5 nM sJ1 for 168 hrs) it was 6.5 ± 1.3%*. For the same molecule, the “time after which detectable extracellular FGF-1 was present” value in experiment [1] (37° C.) turned out to be 5 min. In addition, in experiment [2], the “anchorage-independent growth of transfectants” value is “form colonies in soft agar”.
Regarding thrombin, the “export of FGF2” value in experiment [1] is recorded as “unable to induce the export of FGF2”. In addition, in experiment [1] (37° C.), the “thrombin concentration giving maximal release of FGF1R136K” value amounted to 10 µg/mL and the “time after which detectable extracellular FGF-1 was present” value was 5 min. The “release of FGF1R136K into the extracellular compartment” value in experiment [1] (37° C., 10 μg/ml α-thrombin or 5 μM TRAP) was “rapid and sustained appearance of the FGF1R136K mutant in the extracellular compartment”. The “release of FGF1R136K from cells transduced with constitutively active Notch1” value in experiment [1] (caN1-transduced FGF1R136K NIH 3T3 cells) was “unable to initiate the release of the FGF1R136K mutant”. The “release of S100A13” value in experiment [1] (cells co-expressing S100A13 and FGF1R136K, 37° C.) is “presence of S100A13 in the extracellular compartment with kinetics similar to that observed with FGF1”. In addition, in experiment [1] (p40 Syt1-transduced FGF1R136K NIH 3T3 cells), the “release of p40 Syt1” value is on record as “presence of p40 Syt1in the extracellular compartment”.

B1: sDl1: soluble non-transmembrane form (extracellular domain) of the Notch ligand Delta1 (protein)
chain: QVWSSGVFELKLQEFVNKKGLLGNRNCCRGGAGPPPCACRTFFRVCLKHYQASVSPEPPCTYGSAVTPVLGVDSFSLPDGGGADSAFSNPIRFPFGFTWPGTFSLIIEALHTDSPDDLATENPERLISRLATQRHLTVGEEWSQDLHSSGRTDLKYSYRFVCDEHYYGEGCSVFCRPRDDAFGHFTCGERGEKVCNPGWKGPYCTEPICLPGCDEQHGFCDKPGECKCRVGWQGRYCDECIRYPGCLHGTCQQPWQCNCQEGWGGLFCNQDLNYCTHHKPCKNGATCTNTGQGSYTCSCRPGYTGATCELGIDECDPSPCKNGGSCTDLENSYSCTCPPGFYGKICELSAMTCADGPCFNGGRCSDSPDGGYSCRCPVGYSGFNCEKKIDYCSSSPCSNGAKCVDLGDAYLCRCQAGFSGRHCDDNVDDCASSPCANGGTCRDGVNDFSCTCPPGYTGRNCSAPVSRCEHAPCHNGATCHERGHRYVCECARGYGGPNCQFLLPELPPGPAVVDLTEKLEGQGGPFPW
modifications: left off: small tags and cut ends
notes: soluble non-transmembrane form (extracellular domain) of the Notch ligand Delta1
For B1, in the experiment with NCSC populations (setting [3]), the Glial-Only colonies came out at 57.8 ± 9.9%, the Neuron-Containing colonies worked out at 7.0 ± 5.7% and the Neuron-Only colonies turned out to be 0%. For the same molecule, the “anchorage-independent growth of transfectants” value in experiment [2] is “form colonies in soft agar”.
